Source: US20250213593A1, “Use of Derivatives based on Sarsasapogenin Structure and Pharmaceutical Compositions thereof” (BEIJING PHYTOVENT PHARMACEUTICAL TECHNOLOGY CO., LTD., priority 2022, published 2025)
Values after ≈ are worked out from the molar mass of the structure shown. “Also recorded” adds a separate entry of the source.

Experiments:
[1] = system: C57BL/6 mice modeled with MPTP; assay: PD mouse model (MPTP); assay type: in vivo; settings: 80 mpk, 15 days; vs model group, T-test
Experimental: • Experimental and analytical method: mice of C57BL/6 strain were used in this experiment, which were divided into 5 groups, including a normal control group (no injection of MPTP), a model group (modeling with MPTP), and treatment groups of three small molecules (Embodiment 13B, Embodiment 25A, and Embodiment 25B). The drug was administered at the same time as modeling was made. The modeling lasted for 5 days, followed by 30 mpk intraperitoneal injection till lasting for 15 days, and lasted for 15 days at 80 mpk. At the endpoint, the brain was soaked and fixed in PFA after cardiac perfusion, and transferred to sucrose dehydration after complete fixation, and OCT embedding and sectioning were used for TH staining after complete dehydration. The detection indicator was the number of TH-positive cells in the substantia nigra. The more positive cells, the better the protection effect of small molecules against MPTP damage. • Results: there were 12 mice in each group, and the statistical results were shown in FIG. 50, T-test, **: p<0.01, #: p<0.05.

[2] = system: Raji-Luc hematologic tumor cells in NOD-Scid immunodeficient mice; assay: NOD-Scid mice inoculated with hematologic tumor cells Raji-Luc; settings: 100 mpk by gavage once a day
[3] = system: transgenic neutrophil fluorescent zebrafishes; assay: Maximum tolerated concentration (MTC) in LPS-induced inflammation zebrafish; assay type: in vivo; settings: for Death count / Death rate (%): n = 30; for If precipitation occurred?: fish-farming water
From the text: Transgenic neutrophil fluorescent zebrafishes were matched and propagated naturally in pairs. The age was 3 days after fertilization (3 dpf), and there was a total of 810 zebrafishes, with 30 zebrafishes per experimental group. The purposes were to determine maximum tolerated concentrations (MTC) of “Embodiment 5” and “Embodiment 6” in an LPS-induced inflammation experiment, and evaluate anti-inflammatory effects of “Embodiment 5” and “Embodiment 6” on LPS-induced inflammations.
(§1) LPS was used to treat normal 3 dpf transgenic neutrophil fluorescent zebrafishes in a yolk sac injection, and a zebrafish inflammation model was established.
Transgenic neutrophil fluorescent zebrafishes (3 dpf), well developed and consistent in stage on 3 days after fertilization, were picked under a microscope and placed in a six-well plate, with 30 zebrafishes being randomly picked for each well at a capacity of 3 mL in each well. A zebrafish inflammation model was established by administrating LPS in a yolk sac injection. “Embodiment 5” and “Embodiment 6” were respectively dissolved with water, wherein the concentrations were 0.625 μM, 1.25 μM, 2.5 μM, 5 μM, 10 μM, 50 μM, 100 μM and 200 μM, respectively. Meanwhile, anormal control group (i.e., zebrafishes were treated with fish-farming water) and a model control group were set, and cultured in a 28° C. incubator for 3 h, and the death of zebrafishes was then observed and recorded. The number of dead zebrafishes in each experimental group was counted, and the maximum tolerated concentrations (MTCs) of zebrafishes in “Embodiment 5” and “Embodiment 6” were determined.

[4] = system: transgenic neutrophil fluorescent zebrafishes; assay: Anti-inflammatory effect on LPS-induced inflammatory zebrafish; assay type: in vivo
Experimental: as §1
Transgenic neutrophil fluorescent zebrafishes (3 dpf), well developed and consistent in stage on 3 days after fertilization, were picked under a microscope and placed in a six-well plate, with 30 zebrafishes being randomly picked for each well at a capacity of 3 mL in each well. A zebrafish inflammation model was established by administrating LPS in a yolk sac injection. “Embodiment 5” and “Embodiment 6” were respectively dissolved with water, wherein the concentrations were 0.28 μM, 0.83 μM and 2.5 μM, respectively. The concentration of indomethacin was 80 μM. Meanwhile, a normal control group (i.e., zebrafishes were treated with fish-farming water) and a model control group were set, and incubated in a 28° C. incubator for 3 h. 10 zebrafishes were randomly selected from each group, and observed and photographed under a fluorescence microscope, and the photos were saved. Nikon NIS-Elements D 3.10 advanced image processing software was used for image analysis, the number (N) of inflammatory neutrophils in zebrafish was calculated, and the statistical processing results were expressed as mean±SE. The statistical analysis results of the number of inflammatory neutrophils in zebrafish were used to evaluate whether “Embodiment 5” and “Embodiment 6” had significant anti-inflammatory effects on LPS-induced inflammatory zebrafish, respectively. A formula for calculating the anti-inflammatory effects of “Embodiment 5” and “Embodiment 6” was as follows: […]

[5] = physchem; settings: organic solvent or mixture
[6] = system: SMPs (submitochondrial particles); assay: Catalytic activity of SMPs (NADH dehydrogenation); assay type: biochemical; settings: Rotenone 2 μM, 10 min, 500 μM NADH
Experimental: Experiment 9. Detection of Small Molecule Compounds that Facilitated the Catalytic Activity of SMPs (Submitochondrial Particles) • Experimental and analytical method: HEK293 cells were cultured at 5% CO2, and purified to obtain mitocondria, which were sonicated to obtain SMPs (submitochondrial granules). SMPs were incubated with different concentrations of small molecule compounds or a control drug (Rotenone, 2 μM) for 10 min, and then added with 500 μM of NADH. The absorbance of NADH was detected by an Enspire multi-mode microplate reader, an enzyme activity curve with the decrease of NADH concentration catalyzed by SMPs was plotted, and a maximum reaction rate of SMPs was calculated by linear fitting. The addition of 1 mM FeCN to a normal NADH catalytic system of SMPs could cause an electronic pathway from NADH to coenzyme Q to be short-circuited.

[7] = system: C57BL/6 mouse MCAO damage model; assay: Mice middle cerebral artery occlusion (MCAO) damage model; assay type: in vivo; settings: 24 h after surgery, vs MCAO model group
Experimental: Animal grouping and treatment: according to body weight on Day 1, the animals were randomly divided into a total of 8 groups (N=5), one group was treated every day, and 3 animals were selected in each group for measuring cerebral blood flows.
If the hind paws of the mice had no response when clamped with dissecting forceps, they were transferred to an anesthesia mask, and the isoflurane concentration would be increased to 1.5%. A thermostat and an anal temperature probe were used to maintain intraoperative body temperatures of the mice near 37° C. […]
Measurement of cerebral blood flow: the head of each mouse was fixed under a brain stereotaxic instrument, the head hair of the mouse was shaved, and an incision was made in the middle. […] Optical fibers of a laser Doppler flow meter were fixed with glue at coordinates of Bregma AP 1.0 mm and ML 5.0 mm, and the blood flow changes during MCA surgery were recorded. […]
• Body weight: the body weights of the mice on the day before surgery and 24 h after surgery were recorded. • Neurological function scoring: Longa behavioral scoring was performed at 2 h and 24 h after surgery. […]
Each mouse was tested for forelimb grip 24 h before surgery and 24 h after surgery. […] The grip peaks were recorded, repeatedly measured for three times, and averaged. […]

[8] = system: transgenic AD mice (C57BL/6J background); assay: Light/dark box test of AD mice; assay type: in vivo, mouse; settings: 6 months after administration
From the text: The principle of the light/dark box test is: the mice have a natural tendency to darkness; and after the mice was put into a light box, the mice would spontaneously enter a connected dark box. However, in this experiment, the dark box was equipped with an electrical stimulation mechanism, and the mice would be shocked when they entered the dark box.

[9] = concentration 0.625 (table head μg/mL; text μM)
[10] = concentration 0.625 (table head μg/mL; text μM), 3 h
[11] = concentration 1.25 (table head μg/mL; text μM)
[12] = concentration 1.25 (table head μg/mL; text μM), 3 h
[13] = concentration 2.5 (table head μg/mL; text μM)
[14] = concentration 2.5 (table head μg/mL; text μM), 3 h
[15] = concentration 5 (table head μg/mL; text μM), 3 h
[16] = concentration 10 (table head μg/mL; text μM), 3 h
[17] = concentration 50 (table head μg/mL; text μM), 3 h
[18] = concentration 100 (table head μg/mL; text μM), 3 h
[19] = concentration 200 (table head μg/mL; text μM), 3 h

With `CCN1CCN(C2CCN(C(=O)CC(=O)N[C@@H]3CC[C@]4(C)C5CC[C@]6(C)[C@@H]7[C@H](C[C@H]6[C@@H]5CC[C@@H]4C3)O[C@]3(CC[C@H](C)CO3)[C@H]7C)CC2)CC1` (stereo partly drawn) [Embodiment 25B] the “number of TH-positive cells in the substantia nigra” value [1] was “only the Embodiment 13B group of three small modules had statistically significant differences” and the “tumor killing effect (in-vivo fluorescence intensity)” value [2] was “relatively good tumor killing effects”.

In the case of `C[C@H]1CC[C@@]2(OC1)O[C@H]1C[C@H]3[C@@H]4CC[C@@H]5CC(NC(=O)CC(=O)N6CCN(C)CC6)CC[C@]5(C)[C@H]4CC[C@]3(C)[C@H]1[C@@H]2C` (stereo partly drawn) [Embodiment 5], the Toxicity [3, 9] is reported as “No obvious toxicity”, the Death count [3, 10] is reported as 0 and the “Death rate (%)” value [3, 10] is reported as 0%. The “If precipitation occurred?” value [3, 9] was “No”, the Toxicity [3, 11] was “No obvious toxicity” and the Death count [3, 12] was 0. For the same compound, the “Death rate (%)” value [3, 12] was 0%, the “If precipitation occurred?” value [3, 11] was “No” and the Toxicity [3, 13] was “normal state; also recorded: No obvious toxicity”. For the same compound, the Death count [3, 14] was 0, the “Death rate (%)” value [3, 14] was 0% and the “If precipitation occurred?” value [3, 13] was “not precipitated and No”. The Death count [3, 15] was 3, the “Death rate (%)” value [3, 15] was 10% and the “If precipitation occurred?” value ([3]; concentration 5 (table head μg/mL; text μM)) was “No”. For the same compound, the Death count [3, 16] was 30, the “Death rate (%)” value [3, 16] was 100% and the “If precipitation occurred?” value ([3]; concentration 10 (table head μg/mL; text μM)) was “No”. For the same compound, the Death count [3, 17] was 30, the “Death rate (%)” value [3, 17] was 100% and the “If precipitation occurred?” value ([3]; concentration 50 (table head μg/mL; text μM)) was “No”. For the same compound, the Death count [3, 18] was 30, the “Death rate (%)” value [3, 18] was 100% and the “If precipitation occurred?” value ([3]; concentration 100 (table head μg/mL; text μM)) was “No”. The Death count [3, 19] was 30, the “Death rate (%)” value [3, 19] was 100% and the “If precipitation occurred?” value ([3]; concentration 200 (table head μg/mL; text μM)) was “No”. For the same compound, the “maximum tolerated concentration (MTC)” value ([3]; in the evaluation of the anti-inflammatory effect, LPS zebrafish, 3 h) was 2.5 µM, the “Inflammation resolution (%) / anti-inflammatory effect” value ([4]; 0.28 μM) was 33% and the “Inflammation resolution (%) / anti-inflammatory effect” value ([4]; 0.83 μM) was 61%. For the same compound, the “Inflammation resolution (%) / anti-inflammatory effect” value ([4]; 2.5 μM) was 67%, the “anti-inflammatory effects on inflammatory zebrafish (in words)” value ([4]; 0.28 to 2.5 μM, P<0.001 vs model control) was “obvious anti-inflammatory effects” and the solubility [5] was 20 mM (≈ 11.7 mg/mL).

For `C=C(C)[C@H]1Cc2c(ccc3c2O[C@@H]2COc4cc(OC)c(OC)cc4[C@@H]2C3=O)O1` [Rotenone], the “dehydrogenation reaction of NADH by SMPs” value [6] was “completely blocked”.

With `CC1=NN(c2ccccc2)C(=O)C1` [Edaravone] the forelimb grip strength ([7]; Edaravone 10 mg/kg IP, NO. 2 60 mg/kg PO, NO. 3-6 80 mg/kg PO) was “significant difference” and the “volume of encephaledema (TTC staining)” value ([7]; doses as Table 6) was “significant difference”.

With `C[C@H]1CC[C@@]2(OC1)O[C@H]1C[C@H]3[C@@H]4CC[C@@H]5CC(NC(=O)CC(=O)N6CC(N7CCOCC7)C6)CC[C@]5(C)C4CC[C@]3(C)[C@H]1[C@@H]2C` (stereo partly drawn) [Embodiment 23] the “memory on electric shock (latency before entering the dark box)” value [8] was “could effectively enhance the memory”.
